# Data published in patent US11578056B2, “Solid forms comprising (S)-2-(2,6-dioxopiperidin-3-yl)-4-((2-fluoro-4-((3-morpholinoazetidin-1-yl)methyl)benzyl)amino)isoindoline-1,3-dione and salts thereof, and compositions comprising and methods of using the same” (Celgene Corporation, priority 2019, dated 2023).
# Assays:
# Test in all cases: Hematological cell line viability/apoptosis flow cytometry assay
# Format in all cases: cell-based
# [1] = tested on: SU-DHL-5 cell line; details: SU-DHL-5 (DLBCL); 120 h
# Description: (§1) Cell Proliferation and Viability Assay Using Hematological Cell Lines: The following exemplary anti-proliferative assay uses exemplary hematological cell lines in the following. The in vitro growth inhibitory activity of Compound 1 described herein was evaluated using a 384-well flow cytometry assay.
# (§2) The cell lines were plated in 384-well flat bottom plates and assessed with increasing concentrations of compound ranging from 0.00015 to 10 μM or dimethyl sulfoxide (DMSO) control. The final concentration of DMSO was 0.1% (v/v). Following the addition of Compound 1 or DMSO and incubation for 120 hours, cell number and cell death were analyzed by flow cytometry (Attune®, Thermo Fisher) using Annexin V and the live-cell impermeant DNA dye, DRAQ7. Phosphatidylserine translocates from the inner layer to the outer layer of the cell membrane early in apoptosis and Annexin V binds to the exposed phosphatidylserine found on the surface of an apoptotic cell. The vital dye DRAQ7 is excluded by intact live cells and only stains cells that have died as a result of apoptosis or necrosis.
# (§3) Flow cytometry data analysis was then performed using the Flow Jo_v10 software to determine the number of viable cells (Annexin V and DRAQ7 double negative staining cells) and percentage of apoptotic cells (Annexin V positive cells) for each condition. The live cell count for every concentration was normalized to the DMSO control (considered as 100%) to calculate the percentage of viable cells remaining after treatment and graphed using GraphPad Prism 7.03. The IC50 (50% inhibitory concentration) and Emax (maximum efficacy achieved) values were then calculated by performing nonlinear regression curve fitting using log(inhibitor) vs. normalized response—variable slope analysis on GraphPad Prism 7.03. Area under the curve (AUC) was calculated by performing area under curve analysis on GraphPad Prism 7.03. Similarly, for apoptosis analysis, the percentage of apoptosis combining both “early” (Annexin V positive and DRAQ7 negative) and “late” apoptosis (Annexin V and DRAQ7 positive) cell gates relative to DMSO was graphed using GraphPad Prism 7.03. The AUC, EC50 (concentration of compound that produces half-maximal apoptosis response) and Ymax (maximal percentage of apoptosis achieved) values from apoptosis curves were calculated by performing area under curve analysis and nonlinear regression curve fitting using log(agonist) vs. normalized response—Variable slope analysis on GraphPad Prism 7.03.
# (§4) Dose-response proliferation curves for the panel of hematological cell lines and non-linear curve-fit regression were used to determine IC50, AUC, and Emax for % viable cells (Emax for viability varies between 100 at low doses and 0 at high doses, which corresponds to inhibition of all viable cells), and dose-response apoptosis curves were used to determine the EC50, AUC, and Ymax for % apoptosis (Ymax for apoptosis varies from 0 at low doses and 100 at higher doses which corresponds to death of all cells). Tumor cells were exposed to serial dilutions (0.00015 to 10 μM) of Compound 1 or dimethyl sulfoxide (DMSO) control for 5 days. Viability and apoptosis for all cell lines was determined by Annexin V/7-aminoactinomycin D (7-AAD) flow cytometry.
# [2] = tested on: Mino cell line; details: Mino (MCL); 120 h
# Description: as §1, §2, §3, §4
# [3] = tested on: Pfeiffer cell line; details: Pfeiffer (DLBCL GCB); 120 h
# Description: as §1, §2, §3, §4
# [4] = tested on: U-2940 cell line; details: U-2940 (DLBCL PMBL); 120 h
# Description: as §1, §2, §3, §4
# [5] = tested on: HG3 cell line; details: HG3 (CLL), 120 h
# Description: as §1, §2, §3, §4
# [6] = tested on: HuT-102 cell line; details: HuT-102 (TCL), 120 h
# Description: as §1, §2, §3, §4
# [7] = tested on: Mec2 cell line; details: Mec2 (CLL), 120 h
# Description: as §1, §2, §3, §4
# [8] = tested on: U-2932 cell line; details: U-2932 (DLBCL ABC); 120 h
# Description: as §1, §2, §3, §4
# [9] = tested on: NCI-H929 cell line; details: NCI-H929 (MM), 120 h
# Description: as §1, §2, §3, §4
# [10] = tested on: KOPN-8 cell line; details: KOPN-8 (ALL), 120 h
# Description: as §1, §2, §3, §4
# [11] = tested on: OPM-2 cell line; details: OPM-2 (MM), 120 h
# Description: as §1, §2, §3, §4
# [12] = tested on: SU-DHL-6 cell line; details: SU-DHL-6 (DLBCL GCB); 120 h
# Description: as §1, §2, §3, §4
# [13] = tested on: OCI-LY3 cell line; details: OCI-LY3 (DLBCL ABC), 120 h
# Description: as §1, §2, §3, §4
# [14] = Homo sapiens, read-out: % Viable Cells IC50
smiles,measurement,setting,value
"O=C1CC[C@H](N2C(=O)c3cccc(NCc4ccc(CN5CC(N6CCOCC6)C5)cc4F)c3C2=O)C(=O)N1 [Compound 1, (S)-2-(2,6-dioxopiperidin-3-yl)-4-((2-fluoro-4-((3-morpholinoazetidin-1-yl)methyl)benzyl)amino)isoindoline-1,3-dione]",% Viable Cells AUC,[1],1.873
same,% Viable Cells Emax,[1],0.1398%
same,Apoptosis AUC,[1],934.1
same,Apoptosis Ymax,[1],95.23%
same,% Viable Cells AUC,[2],62.67
same,% Viable Cells Emax,[2],5.638%
same,Apoptosis AUC,[2],968.2
same,Apoptosis Ymax,[2],97.04%
same,% Viable Cells AUC,[3],313.5
same,% Viable Cells Emax,[3],24.49%
same,Apoptosis AUC,[3],493.3
same,Apoptosis Ymax,[3],51.82%
same,% Viable Cells AUC,[4],70.43
same,% Viable Cells Emax,[4],5.192%
same,Apoptosis AUC,[4],792.5
same,Apoptosis Ymax,[4],82.19%
same,% Viable Cells AUC,[5],676.2
same,% Viable Cells Emax,[5],59.58%
same,Apoptosis AUC,[5],131.5
same,Apoptosis Ymax,[5],14.28%
same,EC50,[5]; HG-3,111 nM
same,IC50,"[5]; HG-3, read-out: % Viable Cells IC50",> 10 µM
same,% Viable Cells AUC,[6],395.4
same,% Viable Cells Emax,[6],36.34%
same,Apoptosis AUC,[6],42.75
same,Apoptosis Ymax,[6],18.50%
same,EC50,[6],23.4 µM
same,IC50,[6]; read-out: % Viable Cells IC50,6.5 nM
same,% Viable Cells AUC,[7],312.5
same,% Viable Cells Emax,[7],25.55%
same,Apoptosis AUC,[7],339.8
same,Apoptosis Ymax,[7],35.28%
same,EC50,[7],13.3 nM
same,IC50,[7]; read-out: % Viable Cells IC50,75.5 nM
same,% Viable Cells AUC,[8],163.7
same,% Viable Cells Emax,[8],12.8%
same,Apoptosis AUC,[8],212.8
same,Apoptosis Ymax,[8],25.81%
same,EC50,[9]; Homo sapiens,11.3 µM
same,IC50,[9]; [14],0.7 nM
same,% Viable Cells AUC,[9],215.5
same,% Viable Cells Emax,[9],6.1%
same,Apoptosis AUC,[9],16.86
same,Apoptosis Ymax,[9],7.00%
same,EC50,[10]; Homo sapiens,726 µM
same,IC50,[10]; [14],41.8 nM
same,% Viable Cells AUC,[10],490.2
same,% Viable Cells Emax,[10],38.3%
same,Apoptosis AUC,[10],14.95
same,Apoptosis Ymax,[10],5.00%
same,EC50,[11]; Homo sapiens,1320 nM
same,IC50,[11]; [14],0.3 nM
same,% Viable Cells AUC,[11],210.5
same,% Viable Cells Emax,[11],6.65%
same,Apoptosis AUC,[11],212.6
same,Apoptosis Ymax,[11],63.00%
same,% Viable Cells AUC,[12],19.94
same,% Viable Cells Emax,[12],0.2469%
same,Apoptosis AUC,[12],920.7
same,Apoptosis Ymax,[12],95.92%
same,IC50,[13]; [14],> 10 µM
same,% Viable Cells AUC,[13],965.1
same,% Viable Cells Emax,[13],85.63%
same,Apoptosis AUC,[13],24.63
same,Apoptosis Ymax,[13],4.493%
